Here are results for 1 molecule from ChEMBL document CHEMBL5576048, “A Second-Generation Oral SARS-CoV-2 Main Protease Inhibitor Clinical Candidate for the Treatment of COVID-19” (J Med Chem, 2024).

The test deals with SARS-CoV-2. As to the kind of experiment: Antiviral activity against SARS-CoV-2 Delta variant infected in African green monkey VeroE6/TMPRSS2 cells. It is filed as functional, organism-based. Conditions: Severe acute respiratory syndrome coronavirus 2, Delta.

In the case of `CCC(CC)COC(=O)[C@H](C)N[P@](=O)(OC[C@H]1O[C@@](C#N)(c2ccc3c(N)ncnn23)[C@H](O)[C@@H]1O)Oc1ccccc1`, the EC50 (usually the concentration at which the effect is half-maximal) came out at 161 nM.
